Measurements published in patent publication US8575197B2, “Pyrolinone derivative and pharmaceutical composition comprising the same” (Shionogi & Co., Ltd., priority 2008, dated 2013).
pIC50: −log10 of the molar value.

What follows are compounds tested against human P2X3 receptor (Homo sapiens (Human), UniProt P56373) (assay: P2X3 receptor inhibition, ATP-evoked Fluo-3 calcium fluorescence (FDSS 3000)). Conditions: C6BU-1 cell transfected with human P2X3 receptor gene; ATP-evoked Fluo-3 fluorescence.
Chain of human P2X3 receptor (P56373 whole entry): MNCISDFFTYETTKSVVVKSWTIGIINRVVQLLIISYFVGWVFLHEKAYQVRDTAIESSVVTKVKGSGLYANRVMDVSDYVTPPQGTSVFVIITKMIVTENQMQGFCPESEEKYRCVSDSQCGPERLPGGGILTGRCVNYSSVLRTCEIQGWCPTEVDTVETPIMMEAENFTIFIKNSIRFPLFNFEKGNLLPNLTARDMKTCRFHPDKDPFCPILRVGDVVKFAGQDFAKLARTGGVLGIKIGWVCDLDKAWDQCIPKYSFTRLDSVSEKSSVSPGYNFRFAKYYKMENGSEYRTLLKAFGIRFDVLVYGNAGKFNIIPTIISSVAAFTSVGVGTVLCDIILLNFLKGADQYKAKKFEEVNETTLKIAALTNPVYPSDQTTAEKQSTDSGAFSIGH
Assay type: cell-based
How it was run: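 C6BU-1 cells stably transfected with human P2X3, loaded with 4 μM Fluo-3-AM for 1 h at 37 °C in HEPES buffer pH 7.5 with probenecid. Compound added 5 min before 40 nM ATP solution; fluorescence followed 3 min. IC50 from ratio of peak post-ATP to baseline fluorescence.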
With Cc1cc(-c2ccc(N3C(=O)C(O)=C(C(=O)C(C)C)C3c3ccccc3OC(F)(F)F)cc2)cs1 (stereo not drawn) [Compound I-322] the pIC50 was 6.99. With CC(C)(C)C(=O)C1=C(O)C(=O)N(c2ccc(-c3ccon3)cc2)C1c1ccccc1S(C)(=O)=O (stereo not drawn) [Compound I-111] the pIC50 was 6.20. Work on COCCOc1ncccc1C1C(C(=O)C2CCCC2)=C(O)C(=O)N1c1ccc(-c2noc(C)n2)cc1 (stereo not drawn) [Compound I-523] yielded a pIC50 of 6.45. Work on Cc1nc(-c2ccc(N3C(=O)C(O)=C(C(=O)C(C)C)C3c3ccccc3OCC3OCCO3)cc2)no1 (stereo not drawn) [Compound I-501] yielded a pIC50 of 7.28. In the case of COCCOc1ccccc1C1C(C(=O)C(C)C)=C(O)C(=O)N1c1ccc(-c2ccoc2)cc1 (stereo not drawn) [Compound I-201], the pIC50 was 7.41. For CSc1ccc(N2C(=O)C(O)=C(C(=O)C(C)(C)C)C2c2cccnc2OCCO)cc1 (stereo not drawn) [Compound I-171], the pIC50 was 6.21. For COCCOc1ccccc1C1c2c(C(C)(C)C)n[nH]c2C(=O)N1c1ccc(-c2cccs2)cc1 (stereo not drawn) [II-114], the pIC50 was 7.92. In the case of CCNC(=O)c1ccc(C(=O)C2=C(O)C(=O)N(c3ccc(-c4ccon4)cc3)C2C(CC)CC)cc1 (stereo not drawn) [Compound I-004], the pIC50 was 7.92. Cc1cc(-c2ccc(N3C(=O)C(O)=C(C(=O)C(C)C)C3c3ccccc3OC(F)F)cc2)cs1 (stereo not drawn) [Compound I-321] showed a pIC50 of 7.15. COc1ccccc1C1c2c(C(C)(C)CO)n[nH]c2C(=O)N1c1ccc(-c2ccco2)cc1 (stereo not drawn) [II-215] was tested, and the pIC50 was 7.82. Work on COc1ccccc1C1c2c(C(C)(C)C)n[nH]c2C(=O)N1c1ccc(-c2ccoc2)nc1 (stereo not drawn) [II-253] yielded a pIC50 of 7.70. Compound COc1ccccc1C1C(C(=O)C(C)C)=C(O)C(=O)N1c1ccc(-c2ccsc2)c(C)c1 (stereo not drawn) [Compound I-236] has a pIC50 of 6.37. Cc1ccc(-c2ccc(N3C(=O)C(O)=C(C(=O)CC(C)C)C3c3ccccc3OC(F)(F)F)cc2)o1 (stereo not drawn) [Compound I-362] gave a pIC50 of 7.40. CC(C)(C)c1n[nH]c2c1C(c1ccccc1OCC(N)=O)N(c1ccc(-c3ccon3)cc1)C2=O (stereo not drawn) [II-075] showed a pIC50 of 6.82. For CC(C)C(=O)C1=C(O)C(=O)N(c2ccc(-c3ccsc3)cc2)C1c1cccnc1OCC(N)=O (stereo not drawn) [Compound I-200], the pIC50 was 7.85. CC(C)CC(=O)C1=C(O)C(=O)N(c2ccc(-c3ccsc3)cc2)C1c1ccccc1OC(F)F (stereo not drawn) [Compound I-290] showed a pIC50 of 7.29. COCc1ncccc1C1c2c(C(C)(C)C)n[nH]c2C(=O)N1c1ccc(-c2ccsc2)cc1 (stereo not drawn) [II-126] was tested, and the pIC50 was 6.66. With CC(C)CC(=O)C1=C(O)C(=O)N(c2ccc(-c3ccoc3)cc2)C1c1ccccc1OC(F)(F)F (stereo not drawn) [Compound I-343] the pIC50 was 7.11. In the case of COCc1ccccc1C1C(C(=O)CC(C)C)=C(O)C(=O)N1c1ccc(-c2ccc(C)o2)cc1 (stereo not drawn) [Compound I-380], the pIC50 was 8.15. For CCc1ccccc1C1C(C(=O)C(C)(C)C)=C(O)C(=O)N1c1ccc(-c2ccon2)cc1 (stereo not drawn) [Compound I-091], the pIC50 was 6.47. For COCc1ccccc1[C@@H]1C(C(=O)CC(C)C)=C(O)C(=O)N1c1ccc(-c2ccsc2)cc1 [Compound I-356], the pIC50 was 8.15. For COc1ccccc1C1c2c(C(C)(C)C)n[nH]c2C(=O)N1c1ccc(N(C)C)cc1 (stereo not drawn) [II-202], the pIC50 was 7.12. Compound Cc1ccc(-c2ccc(N3C(=O)C(O)=C(C(=O)CC(C)C)C3c3cccnc3C(=O)NN(C)C)cc2)s1 (stereo not drawn) [Compound I-576] has a pIC50 of 6.63. For COc1ccccc1C1C(S(C)(=O)=O)=C(O)C(=O)N1c1ccc(-c2ccc(C)o2)cc1 (stereo not drawn) [Compound I-468], the pIC50 was 6.33. Work on CC(C)c1n[nH]c2c1C(c1cccnc1OCCO)N(c1ccc(-c3ccon3)cc1)C2=O (stereo not drawn) [II-044] yielded a pIC50 of 6.24. Work on COc1ccccc1C1c2c(C3(CO)CCCCC3)n[nH]c2C(=O)N1c1ccc(-c2ccon2)cc1 (stereo not drawn) [II-064] yielded a pIC50 of 7.12. Work on COCCOc1ccccc1C1C(C(=O)C(C)(C)C)=C(O)C(=O)N1c1ccc(-c2ccco2)cc1 (stereo not drawn) [Compound I-132] yielded a pIC50 of 7.37. With Cc1ccc(-c2ccc(N3C(=O)C(O)=C(C(=O)CC(C)C)C3c3cccnc3C(=O)NCC#N)cc2)s1 (stereo not drawn) [Compound I-577] the pIC50 was 7.33. Compound CCOC(=O)c1ccc(N2C(=O)C(O)=C(C(=O)C(C)(C)C)C2c2ccccc2OC)cc1 (stereo not drawn) [Compound I-001] has a pIC50 of 7.49. For CC(C)(C)C(=O)C1=C(O)C(=O)N(c2ccc(-c3ccon3)cc2)C1c1cccc[n+]1[O-] (stereo not drawn) [Compound I-005], the pIC50 was 6.61. Work on COCCOc1ccccc1C1C(C(=O)CC(C)C)=C(O)C(=O)N1c1ccc(-c2coc(C)n2)cc1 (stereo not drawn) [Compound I-391] yielded a pIC50 of 6.16. In the case of COCCOc1ccccc1C1C(C(=O)C(C)C)=C(O)C(=O)N1c1ccc(-c2cscn2)cc1 (stereo not drawn) [Compound I-417], the pIC50 was 6.74. Work on CNC(=O)COc1ccccc1C1C(C(=O)C(C)(C)C)=C(O)C(=O)N1c1ccc(-c2ccsc2)cc1 (stereo not drawn) [Compound I-147] yielded a pIC50 of 7.77. In the case of O=C(C1=C(O)C(=O)N(c2ccc(-c3ccon3)cc2)C1C1CCCCC1)c1ccc(OC(F)(F)F)cc1 (stereo not drawn) [Compound I-026], the pIC50 was 6.47. CCC(CC)C1C(C(=O)c2ccc(C(=O)N(C)C)cc2)=C(O)C(=O)N1c1ccc(-c2ccon2)cc1 (stereo not drawn) [Compound I-003] gave a pIC50 of 7.40. CC(C)Oc1ccccc1C1C(C(=O)C(C)C)=C(O)C(=O)N1c1ccc(N2CCCC2)cc1 (stereo not drawn) [Compound I-459] gave a pIC50 of 7.59. With CCCc1ccc(N2C(=O)c3[nH]nc(C(C)(C)C)c3C2c2ccccc2OC)cc1 (stereo not drawn) [II-001] the pIC50 was 6.98. With Cc1cc(-c2ccc(N3C(=O)C(O)=C(C(=O)CC(C)C)C3c3ccccc3OCCO)cc2)cs1 (stereo not drawn) [Compound I-374] the pIC50 was 7.40. With COc1ncccc1C1c2c(C(C)(C)CO)n[nH]c2C(=O)N1c1ccc(-c2cccs2)cc1 (stereo not drawn) [II-110] the pIC50 was 7.62. COCCOc1ncccc1C1C(C(=O)C(C)(C)C)=C(O)C(=O)N1c1ccc(SC)cc1 (stereo not drawn) [Compound I-150] showed a pIC50 of 6.38. CN(C)C(=O)c1ccccc1C1C(C(=O)C2CCCC2)=C(O)C(=O)N1c1ccc(-c2ccsc2)cc1 (stereo not drawn) [Compound I-514] gave a pIC50 of 6.86. With Cc1ccc(-c2ccc(N3C(=O)C(O)=C(C(=O)CC(C)C)C3c3ccccc3OCCO)cc2)o1 (stereo not drawn) [Compound I-384] the pIC50 was 7.72. With Cc1ccc(-c2ccc(N3C(=O)C(O)=C(C(=O)C(C)C)C3c3ccccc3OC(C)C)cc2)s1 (stereo not drawn) [Compound I-400] the pIC50 was 7.66. With CSc1ccc(N2C(=O)C(O)=C(C(=O)C(C)C)C2c2ccccc2OCC2CCOCC2)cc1 (stereo not drawn) [Compound I-591] the pIC50 was 7.51. CC(C)C(=O)C1=C(O)C(=O)N(c2ccc(-c3ccco3)cc2)C1c1ccccc1OCCO (stereo not drawn) [Compound I-225] gave a pIC50 of 7.19. COc1ccccc1C1c2c(C(C)(C)CO)n[nH]c2C(=O)N1c1ccc(-c2ccco2)cn1 (stereo not drawn) [II-265] showed a pIC50 of 7.51. CC(C)CC(=O)C1=C(O)C(=O)N(c2ccc(-c3ccoc3)cc2)C1c1ccccc1OC(C)C (stereo not drawn) [Compound I-408] gave a pIC50 of 7.74. COCCOc1ncccc1C1c2c(C(C)C)n[nH]c2C(=O)N1c1ccc(-c2ccon2)cc1 (stereo not drawn) [II-279] was tested, and the pIC50 was 6.42. In the case of COc1ncccc1C1C(C(=O)C(C)C)=C(O)C(=O)N1c1ccc(-c2csc(C)c2)cc1 (stereo not drawn) [Compound I-320], the pIC50 was 6.56. In the case of COCc1ccccc1C1C(C(=O)C(C)C)=C(O)C(=O)N1c1ccc(C2CCCC2)cc1 (stereo not drawn) [Compound I-528], the pIC50 was 7.15. For CC(C)Oc1ccccc1C1C(C(=O)C(C)C)=C(O)C(=O)N1c1ccc(-c2csnn2)cc1 (stereo not drawn) [Compound I-533], the pIC50 was 7.48. COCOc1ccccc1C1C(C(=O)C(C)C)=C(O)C(=O)N1c1ccc(-c2cccs2)cc1 (stereo not drawn) [Compound I-227] showed a pIC50 of 8.10. COc1ncccc1C1c2c(C(C)(C)C)n[nH]c2C(=O)N1c1ccc(-c2ccoc2)cc1 (stereo not drawn) [II-220] gave a pIC50 of 7.16. CC(C)Oc1ccccc1C1C(C(=O)C(C)C)=C(O)C(=O)N1c1ccc(-c2ccsc2)cc1 (stereo not drawn) [Compound I-299] showed a pIC50 of 8.10. For CN(C)c1ccccc1C1c2c(C(C)(C)C)n[nH]c2C(=O)N1c1ccc(-c2ccon2)cc1 (stereo not drawn) [II-119], the pIC50 was 6.86. With COc1ncccc1C1c2c(C(C)(C)C)n[nH]c2C(=O)N1c1ccc(-c2ccsc2)nc1 (stereo not drawn) [II-268] the pIC50 was 7.62. With Cc1nc(-c2ccc(N3C(=O)C(O)=C(C(=O)CC(C)C)C3c3ccccc3OC(C)C)cc2)no1 (stereo not drawn) [Compound I-317] the pIC50 was 7.14. With COCOc1ccccc1C1C(C(=O)CC(C)C)=C(O)C(=O)N1c1ccc(-c2ccsc2)cc1 (stereo not drawn) [Compound I-249] the pIC50 was 8.00. COc1ccc(-c2n[nH]c3c2C(C2CCCCC2)N(Cc2cc(C)on2)C3=O)cc1 (stereo not drawn) [II-200] showed a pIC50 of 6.35. CCC(CC)C1C(C(=O)c2ccc(C(=O)N(C)C)cc2)=C(O)C(=O)N1c1ccc(-c2noc(C)n2)cc1 (stereo not drawn) [Compound I-002] was tested, and the pIC50 was 7.62. In the case of CC(=O)N(C)c1ccccc1C1C(C(=O)C(C)C)=C(O)C(=O)N1c1ccc(-c2ccsc2)cc1 (stereo not drawn) [Compound I-212], the pIC50 was 7.04. With Cc1ccc(-c2ccc(N3C(=O)C(O)=C(C(=O)C(C)C)C3c3ccccc3OC(F)(F)F)cc2)o1 (stereo not drawn) [Compound I-359] the pIC50 was 7.62. Work on Cc1ccc(-c2ccc(N3C(=O)C(O)=C(C(=O)C(C)C)C3c3ccccc3C(=O)N3CCOCC3)cc2)o1 (stereo not drawn) [Compound I-549] yielded a pIC50 of 6.67. With Cc1cc(-c2ccc(N3C(=O)C(O)=C(C(=O)C(C)C)C3c3ccccc3C(=O)N3CCOCC3)cc2)cs1 (stereo not drawn) [Compound I-546] the pIC50 was 6.40. In the case of COc1ccccc1C1C(C(=O)C(C)(C)C)=C(O)C(=O)N1c1ccc(-c2cc[nH]c2)cc1 (stereo not drawn) [Compound I-094], the pIC50 was 6.52. For Cc1ccc(-c2ccc(N3C(=O)C(O)=C(C(=O)CC(C)C)C3c3ccccc3OC(C)C)cc2)o1 (stereo not drawn) [Compound I-398], the pIC50 was 7.85.
